In patent EP0908457B1, “3-(1,2-benzisothiazol- and isoxazol-5-Y1)-2,4(1H,3H)-pyrimidinedione or thione and 3-(1,2-benzisothiazol- and isoxazol-5-y1)-4(3H)-pyrimidinone or thione herbicidal agents” (BASF AKTIENGESELLSCHAFT, priority 1997, dated 1999):

Legend:
[1] = test system: Monochoria vaginalis, Presl.; experiment: Preemergence weed control under flooded paddy conditions, MOOVA (Monochoria); type: in vivo; conditions: preemergence, flooded paddy, rated 3-4 weeks after treatment
[2] = test system: Echinochloa oryzoides (Ard.) Fritsch.; experiment: Preemergence weed control under flooded paddy conditions, ECHORC (Watergrass (Calif.)); type: in vivo; conditions: preemergence, flooded paddy, rated 3-4 weeks after treatment
[3] = test system: Cyperus serotinus, Rottb.; experiment: Preemergence weed control under flooded paddy conditions, CYPSE (Flatsedge); type: in vivo; conditions: preemergence, rated 3-4 weeks after treatment
[4] = test system: Sagittaria pygmaea, L.; experiment: Preemergence weed control under flooded paddy conditions, SAGPY (Arrowhead (Pygmaea)); type: in vivo; conditions: preemergence, flooded paddy, rated 3-4 weeks after treatment
[5] = test system: Cyperus iria; experiment: Preemergence weed control under flooded paddy conditions, CYPIR (Rice Flatsedge); type: in vivo; conditions: preemergence, flooded paddy, rated 3-4 weeks after treatment
[6] = test system: Oryza sativa, (L.) Tebonnet; experiment: Rice tolerance to post-transplant applications under flooded paddy conditions (Example 187), ORYSAT (Rice, Tebonnet); conditions: rated 3-4 weeks after treatment
Note: meaning of each grade not given here.

SMILES | herbicidal effect rating, MOOVA ([1]; Rate 0.0320 kg/ha) | herbicidal effect rating, MOOVA ([1]; Rate 0.0620 kg/ha) | herbicidal effect rating, MOOVA ([1]; Rate 0.1250 kg/ha) | herbicidal effect rating, MOOVA ([1]; Rate 0.2500 kg/ha) | herbicidal effect rating, MOOVA ([1]; Rate 0.5000 kg/ha) | herbicidal effect rating, ECHORC ([2]; Rate 0.0320 kg/ha) | herbicidal effect rating, ECHORC ([2]; Rate 0.0620 kg/ha) | herbicidal effect rating, ECHORC ([2]; Rate 0.1250 kg/ha) | herbicidal effect rating, ECHORC ([2]; Rate 0.2500 kg/ha) | herbicidal effect rating, ECHORC ([2]; Rate 0.5000 kg/ha) | herbicidal effect rating, CYPSE ([3]; Rate 0.1250 kg/ha) | herbicidal effect rating, CYPSE ([3]; Rate 0.2500 kg/ha) | herbicidal effect rating, CYPSE ([3]; Rate 0.5000 kg/ha) | herbicidal effect rating, SAGPY ([4]; Rate 0.0320 kg/ha) | herbicidal effect rating, SAGPY ([4]; Rate 0.0620 kg/ha) | herbicidal effect rating, SAGPY ([4]; Rate 0.1250 kg/ha) | herbicidal effect rating, SAGPY ([4]; Rate 0.2500 kg/ha) | herbicidal effect rating, SAGPY ([4]; Rate 0.5000 kg/ha) | herbicidal effect rating, CYPIR ([5]; Rate 0.0320 kg/ha) | herbicidal effect rating, CYPIR ([5]; Rate 0.0620 kg/ha) | other results
CCCS(=O)(=O)NC(=O)COc1ccccc1-c1nsc2ccc(-n3c(=O)cc(C(F)(F)F)n(C)c3=O)cc12 [Example 556, Acetamide, 2-{o-{5-[3,6-dihydro-3-methyl-2,6-dioxo-4-(trifluoromethyl)-1(2H)-pyrimidinyl]-1,2-benzisothiazol-3-yl}phenoxy}-N-(propylsulfonyl)-] | 9.0 | 9.0 | 9.0 | 9.0 | 9.0 | 2.9 | 3.6 | 4.4 | 9.0 | 9.0 | 9.0 | 9.0 | 0.0 | 0.0 | 0.0 | 6.0 | 4.0 | 3.0 | 0.0 | 2.0 | herbicidal effect rating, CYPSE ([3]; Rate 0.0320 kg/ha): 2.0; herbicidal effect rating, CYPSE ([3]; Rate 0.0620 kg/ha): 2.0; herbicidal effect rating, CYPIR ([5]; Rate 0.1250 kg/ha): 7.0; herbicidal effect rating, CYPIR ([5]; Rate 0.2500 kg/ha): 9.0; herbicidal effect rating, CYPIR ([5]; Rate 0.5000 kg/ha): 3.0; herbicidal effect rating ORYSAT ([6]; Rate 0.0320 kg/ha): 4.0; herbicidal effect rating ORYSAT ([6]; Rate 0.0620 kg/ha): 7.0; herbicidal effect rating ORYSAT ([6]; Rate 0.1250 kg/ha): 8.0; herbicidal effect rating ORYSAT ([6]; Rate 0.2500 kg/ha): 9.0; herbicidal effect rating ORYSAT ([6]; Rate 0.5000 kg/ha): 5.0
C=CS(=O)(=O)NC(=O)COc1ccccc1-c1nsc2ccc(-n3c(=O)cc(C(F)(F)F)n(C)c3=O)cc12 [Example 557, Acetamide, 2-{o-{5-[3,6-dihydro-3-methyl-2,6-dioxo-4-(trifluoromethyl)-1(2H)-pyrimidinyl]-1,2-benzisothiazol-3-yl}phenoxy}-N-(vinylsulfonyl)-] | 9.0 | 9.0 | 9.0 | 9.0 | 9.0 | 4.3 | 5.1 | 6.3 | 9.0 | 9.0 | 6.0 | 9.0 | 5.0 | 0.0 | 0.0 | 2.0 | 4.0 | 4.0 | 4.0 | 8.0 | herbicidal effect rating, CYPSE ([3]; Rate 0.0320 kg/ha): 0.0; herbicidal effect rating, CYPIR ([5]; Rate 0.1250 kg/ha): 9.0; herbicidal effect rating, CYPIR ([5]; Rate 0.2500 kg/ha): 9.0; herbicidal effect rating, CYPIR ([5]; Rate 0.5000 kg/ha): 9.0; herbicidal effect rating ORYSAT ([6]; Rate 0.0320 kg/ha): 6.0; herbicidal effect rating ORYSAT ([6]; Rate 0.0620 kg/ha): 8.0; herbicidal effect rating ORYSAT ([6]; Rate 0.1250 kg/ha): 8.0; herbicidal effect rating ORYSAT ([6]; Rate 0.2500 kg/ha): 9.0; herbicidal effect rating ORYSAT ([6]; Rate 0.5000 kg/ha): 9.0
CCS(=O)(=O)NC(=O)COc1ccccc1-c1nsc2ccc(-n3c(=O)cc(C(F)(F)F)n(C)c3=O)cc12 [Example 558, Acetamide, 2-{o-{5-[3,6-dihydro-3-methyl-2,6-dioxo-4-(trifluoromethyl)-1(2H)-pyrimidinyl]-1,2-benzisothiazol-3-yl}phenoxy}-N-(ethylsulfonyl)-] | 9.0 | 9.0 | 9.0 | 9.0 | 9.0 | 4.3 | 4.7 | 7.0 | 9.0 | 9.0 | 9.0 | 9.0 | 9.0 | 2.0 | 2.0 | 4.0 | 8.0 | 4.0 | 2.0 | 6.0 | herbicidal effect rating, CYPIR ([5]; Rate 0.1250 kg/ha): 8.0; herbicidal effect rating, CYPIR ([5]; Rate 0.2500 kg/ha): 9.0; herbicidal effect rating, CYPIR ([5]; Rate 0.5000 kg/ha): 9.0; herbicidal effect rating ORYSAT ([6]; Rate 0.0320 kg/ha): 4.0; herbicidal effect rating ORYSAT ([6]; Rate 0.0620 kg/ha): 7.0; herbicidal effect rating ORYSAT ([6]; Rate 0.1250 kg/ha): 9.0; herbicidal effect rating ORYSAT ([6]; Rate 0.2500 kg/ha): 9.0; herbicidal effect rating ORYSAT ([6]; Rate 0.5000 kg/ha): 9.0
